Test results taken from article PMC12514245, “Impaired migration and lung invasion of human melanoma by a novel small molecule targeting the transmembrane domain of death receptor p75^NTR” (EMBO Molecular Medicine, 2025).
Values joined by “and” are separate entries in the source; they are usually repeats but may differ in a detail not shown here. Equal entries are not always repeated. Where two headings read alike, the source gives them in different places.

Legend:
[1] = Cell viability (Presto Blue), A875 shp75; format: cell-based, human; conditions: human, A875 shp75 cells, 2 days; for viability at 2 days, 1 uM: Div17E5 1 uM; for viability at 2 days, 1.5 uM: Div17E5 1.5 uM
Protocol: To measure the cytotoxic effect of Div17E5, A875 NT or shp75 cells were seeded at 2000 cells per well (in 100 μL DMEM) in a 96-well plate and incubated for 12 h. Next, Div17E5 at various concentrations was added and incubated at 37 °C in 5% CO2 for 2 days. Following treatment, 10 μL Presto Blue® (resazurin, ThermoFIsher) was added to each well of the 96-well plate and incubated for 2 h at 37 °C in 5% CO2. Cellular fluorescence in each well was measured at 535 nm excitation and 615 nm emission using a microtiter plate reader. Data was converted into the relative cell viability (%) from the fluorescence of cells in each treatment relative to that of the DMSO control group (set as 100%).

[2] = system: A875-NT melanoma xenograft; assay: Melanoma lung invasion assay, A875-NT, treatment from one day before cell injection; format: in vivo, SCID mice; conditions: for Photons/second/ mouse/week, Average: group average; for Photons/second/ mouse/week: single mouse
Protocol: Next, to assess the potential inhibitory effects of Np75-4A22 on melanoma cell migration and tissue invasion in vivo, we utilized the highly metastatic human A875 xenograft model. […] Initially, to mimic metastatic dissemination from the primary tumor site, A875-NT or A875-shp75 cells expressing GFP-Luc (for live-monitoring of tumor growth) were injected intravenously in female SCID mice 24 h following a single oral administration of Np75-A422 (200 mg/kg) or drug vehicle alone. Mice received 3 cycles of Np75-A422 (200 mg/kg/day) following a 5 day on and 2 days off drug schedule for a total of 3 weeks (Fig. 8A). Metastatic spread to the lungs was monitored weekly by luciferase activity using the Xenogen IVIS-200 Optical in vivo luciferase imaging system and mice were sacrificed after the third week. […] In addition, assessment of the metastatic spread was also quantified by histological assessment of non-consecutive lung sections stained for human nucleolin to detect the tumor cells. […] In addition, and as expected, high expression of p75^NTR was detected in lung tumors established by A875-NT cells but was negligible in tumors derived from A875-shp75 cells (Fig. EV10).
(§1) Eight-week-old female SCID mice (Charles River Laboratories, Shrewsbury, MA, USA) were housed in groups of three to five and maintained on a 12-h light/dark schedule with a temperature of 22 °C ± 1 °C and a relative humidity of 50% ± 5%. Food and water were available ad libitum. This research study was reviewed and approved by the University of Calgary Animal Care Committee (AC22-0054) and McGill University (AUP-JGH-8269) and adheres to established ethical principles and guidelines. A875-GFPLuc (A875-NT) or A875-GFPLuc shp75 (A875-shp75) cells harvested using Puck’s EDTA were resuspended in PBS and injected intravenously into SCID mice (5 × 10^5 cells/200 μl per mouse). Np75-4A22 was dissolved in 0.5% sodium carboxymethyl cellulose (NaCMC) in reverse osmosis H2O and administered by oral gavage at 200 mg/kg/day starting one day prior to intravenous (tail vein) injection of tumor cells and continued for 3 1-week cycles (cycle: 5 days on drug, 2 days off drug). Tumor spread to the lung was monitored weekly by luciferase activity using the Xenogen IVIS-200 Optical in vivo luciferase imaging system as described previously (Lun et al, [2016]) and by immunohistochemistry (IHC) at designated time points. IHC was performed after formalin fixation, paraffin embedding and sectioning of the lungs, using a human-specific mouse polyclonal nucleolin antibody (1:500 dilution) and detected using Dako liquid DAB+ Substrate Chromogen System (Dako: k3468, California, USA) followed by a hematoxylin counterstain (Sigma, Oakville, ON, Canada). Sections were mounted and imaged on an Olympus phase contrast microscope (Olympus Life Science, Tokyo, Japan). For immunofluorescence, sections were stained with anti-human nucleolin and anti-human p75NTR antibodies (1:1000 dilution), subsequently detected with 1:200 dilutions of Alexa Fluor™ 488 Goat anti-Mouse IgG (H + L) Highly Cross-Adsorbed Secondary Antibody and Alexa Fluor™ 568 Goat anti-Rabbit IgG (H + L) Cross-Adsorbed Secondary Antibody. Sections were further stained with DAPI to detect all nuclei. Between each treatment, TBS Automation Wash Buffer (Biocare Medical TWB945M) was employed. Images were taken with LSM800 confocal microscope and ZEN system.

[3] = system: A875-NT melanoma xenograft; assay: Melanoma lung invasion assay, A875-NT, delayed treatment 3 weeks after cell injection; format: in vivo, SCID mice
Protocol: (§2) Finally, we investigated whether delayed administration of Np75-4A22 was able to affect engraftment and growth of metastatic tumors in the lung. To this end, drug treatment (orally at 200 mg/kg) was initiated 3 weeks after intravenous injection of A875-NT or A875-shp75 cells in female SCID mice and continued for additionally 4 weekly cycles (5 days on/2 days off) as above (Fig. 8E). Metastatic spread to the lungs was monitored weekly by bioluminescent imaging of luciferase-expressing melanoma cells. […] We conclude that Np75-4A22 can be efficacious at reducing the spread and seeding of melanoma cells in the lung when administered either before or after cell implantation.
as §1

[4] = system: A875-shp75 melanoma xenograft; assay: Melanoma lung invasion assay, A875-shp75, delayed treatment 3 weeks after cell injection; format: in vivo, SCID mice
Protocol: as §2, §1

[5] = N=3, read-out: Cell Viability, Mean
[6] = read-out: Cell Viability, n1-n3

## Oc1ccc(-c2cncc(Nc3ccc(Br)c(Cl)c3)n2)cc1 [Div17E5]
[1]; Div17E5 0.5 uM, read-out: Cell Viability, n1-n3
  viability at 2 days, 0.5 uM: 101%
[1]; [5]
  viability at 2 days, 1 uM: 107%
  viability at 2 days, 1.5 uM: 103%
[1]; [6]
  viability at 2 days, 1 uM: 101%
  viability at 2 days, 1.5 uM: 107%

## Cc1cccc(-c2cncc(Nc3ccc(Br)c(Cl)c3Cl)n2)c1C [Np75-4A22]
[2]; A875-NT, 1wk
  Photons/second/ mouse/week, Average: 9.39E+04 Photons/second
  Photons/second/ mouse/week: 8.62E+04 Photons/second and 1.03E+05 Photons/second and 1.11E+05 Photons/second and 1.02E+05 Photons/second and 1.26E+05 Photons/second and 1.23E+05 Photons/second and 7.03E+04 Photons/second and 6.52E+04 Photons/second and 7.29E+04 Photons/second and 7.98E+04 Photons/second
[2]; A875-NT, 2wks
  Photons/second/ mouse/week, Average: 1.01E+05 Photons/second
  Photons/second/ mouse/week: 9.63E+04 Photons/second and 1.02E+05 Photons/second and 1.27E+05 Photons/second and 8.86E+04 Photons/second and 1.04E+05 Photons/second and 1.23E+05 Photons/second and 9.01E+04 Photons/second and 9.59E+04 Photons/second and 8.45E+04 Photons/second and 9.64E+04 Photons/second
[2]; A875-NT, 3wks
  Photons/second/ mouse/week: 1.77E+05 Photons/second and 1.53E+05 Photons/second and 2.03E+05 Photons/second and 2.34E+05 Photons/second and 2.96E+05 Photons/second and 2.73E+05 Photons/second and 1.26E+05 Photons/second and 2.18E+05 Photons/second and 2.30E+05 Photons/second and 1.32E+05 Photons/second
[2]; A875-NT, average of 5 non-consecutive slides per individual mouse
  Metastatic Nodules/Lung Section, Average: 0.6 and 0.2 and 0.4 and 1 and 0
[2]; A875-NT, average of 5 slides of one mouse
  Cancer Cells/Lung Section, Average per mouse: 5.4 and 2 and 18.4 and 8 and 21.4 and 2.2 and 0
[2]; A875-NT, average of all mice
  Cancer Cells/Lung Section, group Average: 6.16
[2]; A875-NT, average over all mice of the group
  Metastatic Nodules/Lung Section, group Average: 0.36
[2]; A875-NT, individual mouse, slide 1 of 5 non-consecutive slides/mouse
  Metastatic Nodules/Lung Section, Slide 1: 0 and 1
[2]; A875-NT, individual mouse, slide 2 of 5 non-consecutive slides/mouse
  Metastatic Nodules/Lung Section, Slide 2: 1 and 0
[2]; A875-NT, individual mouse, slide 3 of 5 non-consecutive slides/mouse
  Metastatic Nodules/Lung Section, Slide 3: 0 and 1
[2]; A875-NT, individual mouse, slide 4 of 5 non-consecutive slides/mouse
  Metastatic Nodules/Lung Section, Slide 4: 0 and 1 and 2
[2]; A875-NT, individual mouse, slide 5 of 5 non-consecutive slides/mouse
  Metastatic Nodules/Lung Section, Slide 5: 2 and 1 and 0
[2]; oral 200 mg/kg/day, 3 cycles 5 days on/2 days off
  lung tumors (luciferase imaging): dramatic reduction of lung tumors
[2]; oral 200 mg/kg/day, 3 weeks
  lung tumors by histology (human nucleolin; cancer cells and lesions): marked reduction
[3]; A875-NT, group average, wk2
  Average Photons/second/week, wk2: 7.77E+04 Photons/second
[3]; A875-NT, group average, wk3
  Average Photons/second/week, wk3: 1.89E+05 Photons/second
[3]; A875-NT, group average, wk4
  Average Photons/second/week, wk4: 1.70E+05 Photons/second
[3]; A875-NT, group average, wk5
  Average Photons/second/week, wk5: 3.04E+05 Photons/second
[3]; A875-NT, group average, wk6
  Average Photons/second/week, wk6: 8.45E+05 Photons/second
[3]; A875-NT, group average, wk7
  Average Photons/second/week, wk7: 3.17E+06 Photons/second
[3]; A875-NT, individual mouse, wk2
  Photons/second/ mouse/week, wk2: 7.00E+04 Photons/second and 7.88E+04 Photons/second and 6.89E+04 Photons/second and 1.01E+05 Photons/second and 8.02E+04 Photons/second and 7.86E+04 Photons/second and 8.67E+04 Photons/second and 5.74E+04 Photons/second
[3]; A875-NT, individual mouse, wk3
  Photons/second/ mouse/week, wk3: 1.59E+05 Photons/second and 1.50E+05 Photons/second and 1.97E+05 Photons/second and 3.40E+05 Photons/second and 2.35E+05 Photons/second and 1.26E+05 Photons/second and 1.46E+05 Photons/second
[3]; A875-NT, individual mouse, wk4
  Photons/second/ mouse/week, wk4: 1.44E+05 Photons/second and 1.39E+05 Photons/second and 1.26E+05 Photons/second and 1.15E+05 Photons/second and 2.32E+05 Photons/second and 2.12E+05 Photons/second and 2.11E+05 Photons/second and 1.82E+05 Photons/second
[3]; A875-NT, individual mouse, wk5
  Photons/second/ mouse/week, wk5: 2.30E+05 Photons/second and 1.68E+05 Photons/second and 2.24E+05 Photons/second and 7.71E+05 Photons/second and 3.62E+05 Photons/second and 2.51E+05 Photons/second and 2.06E+05 Photons/second and 2.23E+05 Photons/second
[3]; A875-NT, individual mouse, wk6
  Photons/second/ mouse/week, wk6: 1.70E+05 Photons/second and 6.38E+04 Photons/second and 3.70E+05 Photons/second and 3.16E+06 Photons/second and 2.58E+06 Photons/second and 1.54E+05 Photons/second and 1.46E+05 Photons/second and 1.19E+05 Photons/second
[3]; A875-NT, individual mouse, wk7
  Photons/second/ mouse/week, wk7: 5.60E+05 Photons/second and 5.09E+05 Photons/second and 3.70E+06 Photons/second and 1.34E+07 Photons/second and 6.38E+06 Photons/second and 2.75E+05 Photons/second and 2.70E+05 Photons/second and 2.40E+05 Photons/second
[3]; oral 200 mg/kg, started 3 weeks after cell injection, 4 weekly cycles
  lung tumors (bioluminescent imaging), delayed treatment: reducing A875-NT lung tumors to very low levels
[4]; group average, wk2
  Average Photons/second/week, wk2: 9.88E+04 Photons/second
[4]; group average, wk3
  Average Photons/second/week, wk3: 1.46E+05 Photons/second
[4]; group average, wk4
  Average Photons/second/week, wk4: 1.10E+05 Photons/second
[4]; group average, wk5
  Average Photons/second/week, wk5: 2.77E+05 Photons/second
[4]; group average, wk6
  Average Photons/second/week, wk6: 4.60E+05 Photons/second
[4]; group average, wk7
  Average Photons/second/week, wk7: 1.10E+06 Photons/second
[4]; individual mouse, wk2
  Photons/second/ mouse/week, wk2: 1.05E+05 Photons/second and 6.22E+04 Photons/second and 8.27E+04 Photons/second and 9.38E+04 Photons/second and 1.02E+05 Photons/second and 8.99E+04 Photons/second and 1.49E+05 Photons/second and 1.09E+05 Photons/second and 9.56E+04 Photons/second
[4]; individual mouse, wk3
  Photons/second/ mouse/week, wk3: 1.10E+05 Photons/second and 1.18E+05 Photons/second and 1.42E+05 Photons/second and 1.47E+05 Photons/second and 1.39E+05 Photons/second and 1.86E+05 Photons/second and 1.67E+05 Photons/second and 1.65E+05 Photons/second and 1.36E+05 Photons/second
[4]; individual mouse, wk4
  Photons/second/ mouse/week, wk4: 1.43E+05 Photons/second and 9.53E+04 Photons/second and 1.42E+05 Photons/second and 1.00E+05 Photons/second and 1.24E+05 Photons/second and 1.66E+05 Photons/second and 4.36E+04 Photons/second and 7.52E+04 Photons/second and 1.02E+05 Photons/second
[4]; individual mouse, wk5
  Photons/second/ mouse/week, wk5: 1.26E+05 Photons/second and 1.70E+05 Photons/second and 1.58E+05 Photons/second and 1.31E+05 Photons/second and 1.75E+05 Photons/second and 1.89E+05 Photons/second and 1.28E+05 Photons/second and 4.29E+05 Photons/second and 9.90E+05 Photons/second
[4]; individual mouse, wk6
  Photons/second/ mouse/week, wk6: 2.09E+05 Photons/second and 1.96E+05 Photons/second and 2.02E+05 Photons/second and 2.61E+05 Photons/second and 6.18E+04 Photons/second and 1.19E+05 Photons/second and 3.83E+05 Photons/second and 2.25E+06 Photons/second
[4]; individual mouse, wk7
  Photons/second/ mouse/week, wk7: 1.96E+05 Photons/second and 1.65E+05 Photons/second and 3.28E+05 Photons/second and 1.98E+06 Photons/second and 3.78E+06 Photons/second
